target: hCereblon(M1-L442)_hDDB1(M1-H1140) (Homo sapiens (Human), UniProt Q96SW2); experiment: Fluorescence direct binding (tryptophan fluorescence titration); conditions: 20° C., excitation 280 nm, emission 340 nm, 50 mM Hepes 7.4 200 mM NaCl; read-out: Fluorescence h-Cereblon_DDB1 Mean Kd_EQ
Sequence (Q96SW2 whole entry, looked up): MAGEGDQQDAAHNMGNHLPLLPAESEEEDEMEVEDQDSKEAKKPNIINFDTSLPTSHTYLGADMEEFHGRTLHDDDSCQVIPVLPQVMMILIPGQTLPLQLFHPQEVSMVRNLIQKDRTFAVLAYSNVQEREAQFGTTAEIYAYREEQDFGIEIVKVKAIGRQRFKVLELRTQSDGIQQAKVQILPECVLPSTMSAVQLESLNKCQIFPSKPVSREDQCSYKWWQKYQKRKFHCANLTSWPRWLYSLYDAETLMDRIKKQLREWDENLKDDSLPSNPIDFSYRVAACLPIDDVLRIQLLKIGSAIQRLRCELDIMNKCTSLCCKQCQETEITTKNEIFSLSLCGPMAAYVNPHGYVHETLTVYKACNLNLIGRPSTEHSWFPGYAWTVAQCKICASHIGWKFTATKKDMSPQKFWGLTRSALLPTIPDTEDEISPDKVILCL
Sequence (Q16531 whole entry partner, looked up): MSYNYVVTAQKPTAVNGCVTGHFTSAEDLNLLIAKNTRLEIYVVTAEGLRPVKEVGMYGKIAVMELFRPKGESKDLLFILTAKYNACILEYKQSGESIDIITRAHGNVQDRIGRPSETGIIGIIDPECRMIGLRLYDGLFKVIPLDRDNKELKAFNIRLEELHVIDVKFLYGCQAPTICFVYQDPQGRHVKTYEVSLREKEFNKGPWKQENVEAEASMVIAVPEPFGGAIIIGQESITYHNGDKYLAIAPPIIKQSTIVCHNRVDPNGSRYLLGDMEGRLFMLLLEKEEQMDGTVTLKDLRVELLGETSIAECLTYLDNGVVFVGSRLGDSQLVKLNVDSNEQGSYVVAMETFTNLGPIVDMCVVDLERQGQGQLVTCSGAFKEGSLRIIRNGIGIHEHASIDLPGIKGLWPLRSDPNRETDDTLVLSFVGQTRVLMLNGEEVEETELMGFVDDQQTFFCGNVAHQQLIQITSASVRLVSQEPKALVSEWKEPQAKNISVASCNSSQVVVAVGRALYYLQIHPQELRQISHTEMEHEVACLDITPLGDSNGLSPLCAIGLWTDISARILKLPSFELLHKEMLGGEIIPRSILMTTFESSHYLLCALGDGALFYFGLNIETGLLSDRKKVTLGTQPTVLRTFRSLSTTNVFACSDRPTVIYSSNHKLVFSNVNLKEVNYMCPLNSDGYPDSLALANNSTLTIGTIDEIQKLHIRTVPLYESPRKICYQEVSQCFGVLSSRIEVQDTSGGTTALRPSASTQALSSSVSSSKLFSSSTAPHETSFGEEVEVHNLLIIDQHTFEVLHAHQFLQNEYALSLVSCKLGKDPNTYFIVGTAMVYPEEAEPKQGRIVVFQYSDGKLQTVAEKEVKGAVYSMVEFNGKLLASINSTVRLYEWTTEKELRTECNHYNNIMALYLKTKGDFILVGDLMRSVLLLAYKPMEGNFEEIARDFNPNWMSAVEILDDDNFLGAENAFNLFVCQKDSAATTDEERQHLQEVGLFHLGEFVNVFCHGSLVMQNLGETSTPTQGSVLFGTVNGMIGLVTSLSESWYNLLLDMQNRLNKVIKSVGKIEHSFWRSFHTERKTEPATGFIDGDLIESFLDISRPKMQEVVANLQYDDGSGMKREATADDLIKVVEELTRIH
Procedure: Fluorescence Direct Binding Protocol
Determination of the affinities of compounds to protein containing one or more tryptophan is measurable by monitoring the fluorescence emission in direct mode. The measurements, depending on the protein available amounts, were performed either manually in a cuvette on ISS-PCI photon counting spectrofluorometer or automatically in well plates on a fluorescence plate reader device. Fluorescence titrations were performed at 20° C. in the chosen binding assay buffer by using a defined constant protein concentration against ligand concentration variations. Small aliquots of known ligand concentration solubilized in DMSO were added and the fluorescence, excited at 280 nm, was recorded at 340 nm.

Row | SMILES | Kd [nM]
1 | COC(=O)c1csc(N2CCC3(CCC(=O)NC3=O)C2)n1 (stereo not shown) [Example 22, methyl 2-(6,8-dioxo-2,7-diazaspiro[4.5]decan-2-yl)thiazole-4-carboxylate] | 44
2 | COC(=O)c1cnc(N2CCC3(CCC(=O)NC3=O)C2)s1 (stereo not shown) [Example 23, methyl 2-(6,8-dioxo-2,7-diazaspiro[4.5]decan-2-yl)thiazole-5-carboxylate] | 8
3 | COC(=O)c1cccc2nc(N3CCC4(CCC(=O)NC4=O)C3)[nH]c12 (stereo not shown) [Example 13, methyl 2-(6,8-dioxo-2,7-diazaspiro[4.5]decan-2-yl)-1H-benzo[d]imidazole-7-carboxylate] | 96
4 | CC(C)(C)OC(=O)c1ccc(N2CCC3(CCC(=O)NC3=O)C2)nc1 (stereo not shown) [Example 24, tert-butyl 6-(6,8-dioxo-2,7-diazaspiro[4.5]decan-2-yl) nicotinate] | 2
5 | O=C1NC(=O)C2(CCN(C(=O)c3cnn4ccccc34)CC2)N1 [Example 67, 8-(pyrazolo[1,5-a]pyridine-3-carbonyl)-1,3,8-triazaspiro[4.5] decane-2,4-dione] | < 1
6 | COC(=O)c1ccc2nc(N3CCC4(CCC(=O)NC4=O)C3)sc2c1 (stereo not shown) [Example 21, methyl 2-(6,8-dioxo-2,7-diazaspiro [4.5]decan-2-yl)benzo[d]thiazole-6-carboxylate] | 8
7 | O=C1NC(=O)C2(CCN(C(=O)c3ccccc3)CC2)N1 [Example 60, 8-benzoyl-1,3,8-triazaspiro[4.5]decane-2,4-dione] | 2

Reference: patent US11584748B2, “Spirocyclic compounds” (priority 2018, dated 2023)
